The source of these data is patent publication US8541407B2 (ArQule, Inc., priority 2010, dated 2013).

pIC50: −log10 of the molar value. Structures can show the parent of a compound that is named as a salt.

Sequence of AKT1 (P31749 whole entry): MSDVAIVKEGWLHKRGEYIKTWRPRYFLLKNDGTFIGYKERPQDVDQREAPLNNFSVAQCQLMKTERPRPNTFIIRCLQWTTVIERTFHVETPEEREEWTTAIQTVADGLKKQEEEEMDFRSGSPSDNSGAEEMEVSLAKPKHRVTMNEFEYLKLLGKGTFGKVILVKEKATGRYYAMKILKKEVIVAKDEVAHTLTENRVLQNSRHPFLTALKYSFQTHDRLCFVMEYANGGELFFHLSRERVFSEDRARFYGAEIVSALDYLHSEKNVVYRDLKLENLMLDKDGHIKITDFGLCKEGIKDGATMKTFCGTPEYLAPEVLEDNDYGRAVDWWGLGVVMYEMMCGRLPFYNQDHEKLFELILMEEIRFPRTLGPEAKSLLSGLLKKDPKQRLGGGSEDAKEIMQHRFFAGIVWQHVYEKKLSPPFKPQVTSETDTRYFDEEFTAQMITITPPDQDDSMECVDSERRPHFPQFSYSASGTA

The test deals with AKT1 (Homo sapiens (Human), UniProt P31749). The test is described as follows: Inactive Akt Alpha Screen Assay. The settings on record: non *labeled: Akt Alpha Screen assay; read-out: AKT1 biochemical assay, IC50. The gist of the method:
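AKT1 activated in situ by PDK1, MAPKAPK2, lipid vesicles and ATP, then phosphorylating biotinylated crosstide for 30 min at room temperature. Stopped with 10 mM EDTA; phosphopeptide detected by AlphaScreen using phospho-AKT substrate antibody (1:350), Protein A acceptor and streptavidin donor beads, 90 min dark, ex 640/em 570 nm.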
For `Cc1cc(C(=O)Nc2ccc(-c3nnc4n3-c3cccnc3Nc3ccccc3-4)cc2)no1` [Example 48, N-(4-(9H-benzo[f]pyrido[2,3-b][1,2,4]triazolo[4,3-d][1,4]diazepin-3-yl)phenyl)-5-methylisoxazole-3-carboxamide], the negative logarithm of the IC50 (pIC50) was 6.92.

As for `O=C(CCc1ccccc1)N1CCN(Cc2ccc(-c3nnc4n3-c3cccnc3Nc3ccccc3-4)cc2)CC1` [Example 135, 1-(4-(4-(9H-benzo[f]pyrido[2,3-b][1,2,4]triazolo[4,3-d][1,4]diazepin-3-yl)benzyl)piperazin-1-yl)-3-phenylpropan-1-one], the pIC50 is 5.47.

Regarding `OCc1ccc(-c2nnc3n2-c2cccnc2Nc2ccc(Br)cc2-3)cc1` [Example 225, (4-(12-bromo-9H-benzo[f]pyrido[2,3-b][1,2,4]triazolo[4,3-d][1,4]diazepin-3-yl)phenyl)methanol], the negative logarithm of the IC50 (pIC50) is 5.28.

Take `CN(C)c1ccc(C(=O)Nc2ccc(-c3nnc4n3-c3cccnc3Nc3ccccc3-4)cc2)cc1` [Example 45, N-(4-(9H-benzo[f]pyrido[2,3-b][1,2,4]triazolo[4,3-d][1,4]diazepin-3-yl)phenyl)-4-(dimethylamino)benzamide]: the pIC50 was 5.72.

As for `O=C(c1ccc2c(c1)OCO2)N1CCN(Cc2ccc(-c3nnc4n3-c3cccnc3Nc3ccccc3-4)cc2)CC1` [Example 158, (4-(4-(9H-benzo[f]pyrido[2,3-b][1,2,4]triazolo[4,3-d][1,4]diazepin-3-yl)benzyl)piperazin-1-yl)(benzo[d][1,3]dioxol-5-yl)methanone], the negative logarithm of the IC50 (pIC50) is 5.16.

Consider `c1ccc2c(c1)Nc1ncccc1-n1c(-c3ccc(CN4CCCC4)cc3)nnc1-2` [Example 65, 3-(4-(pyrrolidin-1-ylmethyl)phenyl)-9H-benzo[f]pyrido[2,3-b][1,2,4]triazolo[4,3-d][1,4]diazepine], for which the pIC50 was 5.37.

As to `N#Cc1cccc(C(=O)N2CCN(Cc3ccc(-c4nnc5n4-c4cccnc4Nc4ccccc4-5)cc3)CC2)c1` [Example 159, 3-(4-(4-(9H-benzo[f]pyrido[2,3-b][1,2,4]triazolo[4,3-d][1,4]diazepin-3-yl)benzyl)piperazine-1-carbonyl)benzonitrile], the pIC50 is 5.70.

In the case of `O=C(c1ccc(-c2nnc3n2-c2cccnc2Nc2ccccc2-3)cc1)N1CCC(n2c(=O)[nH]c3ccccc32)CC1` [Example 26, 1-(1-(4-(9H-benzo[f]pyrido[2,3-b][1,2,4]triazolo[4,3-d][1,4]diazepin-3-yl)benzoyl)piperidin-4-yl)-1H-benzo[d]imidazol-2(3H)-one], the pIC50 was 6.10.

On to `O=C(NCc1ccc(-c2nnc3n2-c2cccnc2Nc2ccccc2-3)cc1)c1cccnc1` [Example 96, N-(4-(9H-benzo[f]pyrido[2,3-b][1,2,4]triazolo[4,3-d][1,4]diazepin-3-yl)benzyl)nicotinamide], for which the pIC50 is 6.70.

On to `Cc1ccccc1NC(=O)NC1CCN(Cc2ccc(-c3nnc4n3-c3cccnc3Nc3ccccc3-4)cc2)CC1` [Example 179, 1-(1-(4-(9H-benzo[f]pyrido[2,3-b][1,2,4]triazolo[4,3-d][1,4]diazepin-3-yl)benzyl)piperidin-4-yl)-3-(o-tolyl)urea], for which the negative logarithm of the IC50 (pIC50) was 6.15.

Turning to `O=C(c1ccc(F)cc1)N1CCN(Cc2ccc(-c3nnc4n3-c3cccnc3Nc3ccccc3-4)cc2)CC1` [Example 132, (4-(4-(9H-benzo[f]pyrido[2,3-b][1,2,4]triazolo[4,3-d][1,4]diazepin-3-yl)benzyl)piperazin-1-yl)(4-fluorophenyl)methanone], the pIC50 is 5.49.

Turning to `O=S(=O)(NCc1ccc(-c2nnc3n2-c2cccnc2Nc2ccccc2-3)cc1)c1ccccc1` [Example 101, N-(4-(9H-benzo[f]pyrido[2,3-b][1,2,4]triazolo[4,3-d][1,4]diazepin-3-yl)benzyl)benzenesulfonamide], the negative-log IC50 (pIC50) is 6.85.

Turning to `CCN(CC)C(=O)C1CCCN(Cc2ccc(-c3nnc4n3-c3cccnc3Nc3ccccc3-4)cc2)C1` (stereo not drawn) [Example 81, 1-(4-(9H-benzo[f]pyrido[2,3-b][1,2,4]triazolo[4,3-d][1,4]diazepin-3-yl)benzyl)-N,N-diethylpiperidine-3-carboxamide], the pIC50 is 5.32.

Turning to `c1ccc2c(c1)Nc1ncccc1-n1c(-c3ccc(CN4CCN(Cc5ccncc5)CC4)cc3)nnc1-2` [Example 74, 3-(4-((4-(pyridin-4-ylmethyl)piperazin-1-yl)methyl)phenyl)-9H-benzo[f]pyrido[2,3-b][1,2,4]triazolo[4,3-d][1,4]diazepine], the negative logarithm of the IC50 (pIC50) was 5.28.

Take `CC(C)(C)OC(=O)NC1(c2ccc(-c3nnc4n3-c3cccnc3Nc3ccccc3-4)cc2)CC1` [Example 221, tert-butyl (1-(4-(9H-benzo[f]pyrido[2,3-b][1,2,4]triazolo[4,3-d][1,4]diazepin-3-yl)phenyl)cyclopropyl)carbamate]: the negative logarithm of the IC50 (pIC50) was 5.85.

Consider `c1ccc(-c2nnc(C3CCN(Cc4ccc(-c5nnc6n5-c5cccnc5Nc5ccccc5-6)cc4)CC3)o2)cc1` [Example 207, 2-(1-(4-(9H-benzo[f]pyrido[2,3-b][1,2,4]triazolo[4,3-d][1,4]diazepin-3-yl)benzyl)piperidin-4-yl)-5-phenyl-1,3,4-oxadiazole], for which the negative-log IC50 (pIC50) is 6.18.

Take `O=C(NCc1ccc(-c2nnc3n2-c2cccnc2Nc2ccccc2-3)cc1)Nc1ccccc1` [Example 107, 1-(4-(9H-benzo[f]pyrido[2,3-b][1,2,4]triazolo[4,3-d][1,4]diazepin-3-yl)benzyl)-3-phenylurea]: the negative-log IC50 (pIC50) is 5.54.

As to `c1ccc(CNCc2ccc(-c3nnc4n3-c3cccnc3Nc3ccccc3-4)cc2)cc1` [Example 66, N-(4-(9H-benzo[f]pyrido[2,3-b][1,2,4]triazolo[4,3-d][1,4]diazepin-3-yl)benzyl)-1-phenylmethanamine], the pIC50 was 5.72.

As for `Fc1ccc(-c2nnc3n2-c2cccnc2Nc2ccccc2-3)c(F)c1` [Example 17], the negative logarithm of the IC50 (pIC50) was 5.14.

With `COc1cccc(C(=O)N2CCN(Cc3ccc(-c4nnc5n4-c4cccnc4Nc4ccccc4-5)cc3)CC2)c1` [Example 138, (4-(4-(9H-benzo[f]pyrido[2,3-b][1,2,4]triazolo[4,3-d][1,4]diazepin-3-yl)benzyl)piperazin-1-yl)(3-methoxyphenyl)methanone], the pIC50 is 5.66.

Turning to `O=C(Nc1ccc(-c2nnc3n2-c2cccnc2Nc2ccccc2-3)cc1)c1ccc(C(F)(F)F)cc1` [Example 52, N-(4-(9H-benzo[f]pyrido[2,3-b][1,2,4]triazolo[4,3-d][1,4]diazepin-3-yl)phenyl)-4-(trifluoromethyl)benzamide], the pIC50 is 6.19.

As to `Nc1ccc(-c2nnc3n2-c2cccnc2Nc2ccccc2-3)cn1` [Example 5, hydrochloride], the pIC50 was 5.68.

As for `O=C(c1ccc(F)cc1)C1CCN(Cc2ccc(-c3nnc4n3-c3cccnc3Nc3ccccc3-4)cc2)CC1` [Example 164, (1-(4-(9H-benzo[f]pyrido[2,3-b][1,2,4]triazolo[4,3-d][1,4]diazepin-3-yl)benzyl)piperidin-4-yl)(4-fluorophenyl)methanone], the pIC50 is 5.74.

In the case of `O=C(c1ccccn1)N1CCN(Cc2ccc(-c3nnc4n3-c3cccnc3Nc3ccccc3-4)cc2)CC1` [Example 161, (4-(4-(9H-benzo[f]pyrido[2,3-b][1,2,4]triazolo[4,3-d][1,4]diazepin-3-yl)benzyl)piperazin-1-yl)(pyridin-2-yl)methanone], the pIC50 was 5.38.
